In patent US10244779B2, “Method of improving stability of sweet enhancer and composition containing stabilized sweet enhancer” (SENOMYX, INC., priority 2010, dated 2019):

Columns and labels:
[1] = Photostability test of sweet enhancers with/without photostabilizers in Q-Sun Xenon Test Chamber
Experimental: Aqueous buffer solution at pH 7.1 contains 50 mM potassium dihydrogen phosphate and ˜32 mM sodium hydroxide (solutions of 1.0 M hydrochloric acid and 1.0 M sodium hydroxide are used to adjust pH). Aqueous buffer solution at pH 4.0 contains 50 mM citric acidmonosodium salt and ˜7.4 mM sodium hydroxide (solutions of 1.0 M hydrochloric acid and 1.0 M sodium hydroxide are used to adjust pH). Aqueous buffer solution at pH 2.8 contains 50 mM citric acid and ˜16 mM sodium hydroxide (solutions of 1.0 M hydrochloric acid and 1.0 M sodium hydroxide are used to adjust pH).
The stock solutions of the test compounds at 25 mM are made by dissolving the compounds in dimethyl sulfoxide. The solutions of the stabilizers are made by dissolving the materials in the aqueous buffers. The stock solutions are then diluted to 25 μM with the stabilizer solutions to prepare the test solution and 4-mL aliquots of the solutions are transferred to 20-mL clear glass vial for testing.
Accelerated photodegradation was studied using a Q-Sun Xenon Test Chamber (Q-Lab Model No. Xe-1-SC) at an irradiance setting of 350 mW/m^2 at 340 nm and temperature of 25 degrees Celsius. To put this in perspective, 24 hours of constant Q-Sun irradiation at these settings is approximately equivalent to 12.4 days of direct sunlight in the southwestern United States. At 0, 1, 2, 4, and 6 hours from the beginning of the radiation, a 0.4-mL aliquot from each vial is pippeted out to a 1-mL glass insert for analysis.
The samples are analyzed using an Agilent 1100 LC/MSD equipped with a quaternary pump and a diode-array detector (DAD). The peak areas from the MSD chromatograms are used for quantitation, and the photostability is shown by plotting the percentages of the test compound which remains intact at all time points. The peak areas from the DAD chromatograms are used for quantitation for stabilizers with concentration at 250 uM or higher. The instrument conditions are listed below. • Column: YMC ODS AQ 3 um, 4.0×23 mm • Column Temperature: Room temperature • Auto-sampler Temperature: Room temperature • Mobile Phase A: Water • Mobile Phase B: Methanol • Mobile Phase C: 1% Formic Acid • Gradient: % C is constant at 5%; % B from 5% to 95% in 2 min, then back to 5% at 2.1 min, and then held at 5% until 3.25 min; flow rate is 2 mL/min • Injection volume: 10 uL • Data Collection time: 2.75 minutes • MSD ion source: APCI • MSD Signal settings: Positive, selected ion monitoring (SIM) at the mass of the expected molecular ions. • UV detection wavelength: 230 nm. • MSD detection start time: 0.5 min
FIGS. 2 and 3 illustrate the photostability study of Compounds A and B under these condition: Direct sunlight was modeled using a Q-Sun Xenon Test Chamber (Q-Lab Model No. Xe-1-SC) at an irradiance setting of 350 mW/m^2 @340 nm, 25° C. Test samples were irradiated in the Q-Sun at these settings in pH 2.8 buffer with/without Compounds A and B in the presence/absence of the photo-stabilizers A (chlorogenic acid) and B (rutin, a.k.a. quercetin-3-rutinoside).
Direct sunlight was modeled using a Q-Sun Xenon Test Chamber (Q-Lab Model No. Xe-1-SC) at an irradiance setting of 350 mW/m^2 @340 nm, 25° C. Test samples were irradiated in the Q-Sun at these settings in pH 2.8 buffer with Compound A in the presence/absence of the photo-stabilizers. […] Direct sunlight was modeled using a Q-Sun Xenon Test Chamber (Q-Lab Model No. Xe-1-SC) at an irradiance setting of 350 mW/m^2 @340 nm, 25° C. Test samples were irradiated in the Q-Sun at these settings in pH 2.8 buffer with 25 μM of Compound A in the presence/absence of the photo-stabilizers at a concentration of 100 ppm. […] Direct sunlight was modeled using a Q-Sun Xenon Test Chamber (Q-Lab Model No. Xe-1-SC) at an irradiance setting of 350 mW/m^2 @340 nm, 25° C. Test samples were irradiated in the Q-Sun at these settings in pH 2.8 buffer with sweet enhancer Compound E in the presence/absence of the photostabilizers.

[2] = % of 25 μM Compound A remaining with the cinnamic acid or coumarin derivative at 100 ppm (Table 4), pH 2.8 buffer, Q-Sun 350 mW/m^2 @340 nm, 25° C.

Cc1nc2cccc(OCC(C)(C)C(=O)NC3CC3)c2c(N)c1C(=O)O [Example 135, 4-amino-5-(3-(cyclopropylamino)-2,2-dimethyl-3-oxopropoxy)-2-methyl-quinoline-3-carboxylic Acid]
melting point: 227 to 229 °C

O=C(CCc1ccc(O)cc1)c1c(O)cc(O)cc1O [phloretin]
% Remaining @ 1 hr ([1]; buffer, 1 h, 25 ppm, pH 2.8): 89.62% | % Remaining @ 2 hrs ([1]; buffer, 2 h, 25 ppm, pH 2.8): 80.75% | % Remaining @ 4 hrs ([1]; buffer, 4 h, 25 ppm, pH 2.8): 64.60% | % Remaining @ 6 hrs ([1]; buffer, 6 h, 25 ppm, pH 2.8): 50.64%

Cc1nc2cccc(OCC(C)(C)C(=O)NC3CCC3)c2c(N)c1C(=O)O [Example 136, 4-amino-5-(3-(cyclobutylamino)-2,2-dimethyl-3-oxopropoxy)-2-methylquinoline-3-carboxylic Acid]
melting point: 183 to 187 °C

Cc1nc2cccc(OC3CCN(C(=O)C(C)C)CC3)c2c(N)c1C(=O)O [Example 143, 4-amino-5-((1-isobutyrylpiperidin-4-yl)oxy)-2-methylquinoline-3-carboxylic Acid]
melting point: 184 to 186 °C

CCC(CC)COc1cccc2nc(C)c(C(=O)O)c(N)c12 [Example 22, 4-amino-5-(2-ethylbutoxy)-2-methylquinoline-3-carboxylic Acid]
melting point: 145 to 151 °C

Cc1nc2cccc(OCC(C)(C)NC(=O)c3ccncc3)c2c(N)c1C(=O)O [Example 24, 4-amino-5-(2-(isonicotinamido)-2-methylpropoxy)-2-methylquinoline-3-carboxylic Acid]
melting point: 195 to 198 °C

COc1cc2ccc(=O)oc2cc1O [scopoletin]
% Remaining @ 4 hrs ([1]; buffer, 4 h, 100 ppm, pH 2.8): 100.07% | % Remaining @ 6 hrs ([1]; buffer, 6 h, 100 ppm, pH 2.8): 95.72%

COc1ccc2ncc(C(=O)O)c(N)c2c1 [Compound B]
% of compound degraded after 6 hr of irradiation ([1]; pH 2.8): about 80%

Cc1nc2cccc(OCC(C)(C)NC(=O)C3CCC3)c2c(N)c1C(=O)O [Example 142, 4-amino-5-(2-(cyclobutanecarboxamido)-2-methylpropoxy)-2-methylquinoline-3-carboxylic Acid]
melting point: 186 to 190 °C

CCC(=O)N1CCC(COc2cccc3nc(C)c(C(=O)O)c(N)c23)CC1 [Example 153, 4-amino-2-methyl-5-((1-propionylpiperidin-4-yl)methoxy)quinoline-3-carboxylic Acid]
melting point: 168 to 170 °C

CCNC(=O)C(C)(C)COc1cccc2nc(C)c(C(=O)O)c(N)c12 [Example 144, 4-amino-5-(3-(ethylamino)-2,2-dimethyl-3-oxopropoxy)-2-methylquinoline-3-carboxylic Acid]
melting point: 168 to 170 °C

Cc1nc2cccc(OCC(C)(C)NC(=O)C(C)C)c2c(N)c1C(=O)O [Example 139, 4-amino-5-(2-isobutyramido-2-methylpropoxy)-2-methylquinoline-3-carboxylic Acid]
melting point: 184 to 186 °C

Cc1nc2cccc(OCC(C)(C)NC(=O)CN3CCOCC3)c2c(N)c1C(=O)O [Example 149, 4-amino-2-methyl-5-(2-methyl-2-(2-morpholinoacetamido)propoxy)quinoline-3-carboxylic Acid]
melting point: 173 to 175 °C

COc1ccc(CCC(=O)c2c(O)cc(O[C@@H]3O[C@H](CO)[C@@H](O)[C@H](O)[C@H]3O[C@@H]3O[C@@H](C)[C@H](O)[C@@H](O)[C@H]3O)cc2O)cc1O [neohesperidin dihydrochalcone]
% Remaining @ 1 hr ([1]; buffer, 1 h, 50 ppm, pH 2.8): 91.42% | % Remaining @ 2 hrs ([1]; buffer, 2 h, 50 ppm, pH 2.8): 82.53% | % Remaining @ 4 hrs ([1]; buffer, 4 h, 50 ppm, pH 2.8): 66.95% | % Remaining @ 6 hrs ([1]; buffer, 6 h, 50 ppm, pH 2.8): 56.72%

Cc1nc2cccc(OCC(C)(C)NC(=O)c3cccc(O)c3)c2c(N)c1C(=O)O [Example 25, 4-amino-5-(2-(3-hydroxybenzamido)-2-methylpropoxy)-2-methylquinoline-3-carboxylic Acid]
melting point: 195 to 198 °C

C[C@@H]1O[C@@H](O[C@H]2[C@H](Oc3cc(O)c4c(c3)O[C@H](c3ccc(O)cc3)CC4=O)O[C@H](CO)[C@@H](O)[C@@H]2O)[C@H](O)[C@H](O)[C@H]1O [naringin]
% Remaining @ 1 hr ([1]; buffer, 1 h, 50 ppm, pH 2.8): 90.42% | % Remaining @ 2 hrs ([1]; buffer, 2 h, 50 ppm, pH 2.8): 75.92% | % Remaining @ 4 hrs ([1]; buffer, 4 h, 50 ppm, pH 2.8): 55.54% | % Remaining @ 6 hrs ([1]; buffer, 6 h, 50 ppm, pH 2.8): 41.50%

COc1cc([C@@H]2CC(=O)c3c(O)cc(O)cc3O2)ccc1O [homoeriodictol, homoeriodictyol]
% Remaining @ 1 hr ([1]; buffer, 1 h, 12.5 ppm, pH 2.8): 90.83% | % Remaining @ 2 hrs ([1]; buffer, 2 h, 12.5 ppm, pH 2.8): 82.75% | % Remaining @ 4 hrs ([1]; buffer, 4 h, 12.5 ppm, pH 2.8): 57.70% | % Remaining @ 6 hrs ([1]; buffer, 6 h, 12.5 ppm, pH 2.8): 24.54%

CCCCNC(=O)C(C)(C)COc1cccc2nc(C)c(C(=O)O)c(N)c12 [Example 147, 4-amino-5-(3-(butylamino)-2,2-dimethyl-3-oxopropoxy)-2-methylquinoline-3-carboxylic Acid]
melting point: 195 to 199 °C

CC(C)(COc1cccc2c1C(N)=NS(=O)(=O)N2)NC(=O)c1ccccc1 [Example 198, N-(1-(4-amino-2,2-dioxide-1H-benzo[c][1,2,6]thiadiazin-5-yloxy)-2′-methylpropan-2′-yl)benzamide]
melting point: 235 to 236 °C

CCCNC(=O)C(C)(C)COc1cccc2c1C(N)=NS(=O)(=O)N2 [Example 197, 3-(4-Amino-2,2-dioxide-1H-benzo[c][1,2,6]thiadiazin-5-yloxy)-2′,2′-dimethyl-N-propylpropanamide]
melting point: 225 to 226 °C

Cc1nc2cccc(OCC(C)(C)C(=O)NCC3CCC3)c2c(N)c1C(=O)O [Example 151, 4-amino-5-(3-((cyclobutylmethyl)amino)-2,2-dimethyl-3-oxopropoxy)-2-methylquinoline-3-carboxylic Acid]
melting point: 170 to 172 °C

CNC(=O)[C@H]1CC[C@H](Oc2cccc3nc(C)c(C(=O)O)c(N)c23)CC1 [Example 154, 4-amino-2-methyl-5-(((1,4)-trans-4-(methylcarbamoyl)cyclohexyl)oxy)quinoline-3-carboxylic Acid]
melting point: 195 to 198 °C

Nc1nc(=O)[nH]c2sc3c(c12)CCOC3 [Example 159, 4-Amino-5,6-(5′,7′-dihydro-4′H-[2′,3′-c]pyrano)thieno[2,3-d]-pyrimidine-2(1H)-one]
melting point: > 260 °C

O=C(O)/C=C/c1ccc(O)c(O)c1 [caffeic acid]
% Remaining @ 1 hr ([1]; buffer, 1 h, 100 ppm, pH 2.8): 98.02% | % Remaining @ 2 hrs ([1]; buffer, 2 h, 100 ppm, pH 2.8): 99.54% | % Remaining @ 4 hrs ([1]; buffer, 4 h, 100 ppm, pH 2.8): 98.74% | % Remaining @ 6 hrs ([1]; buffer, 6 h, 100 ppm, pH 2.8): 95.55%

O=c1ccc2ccc(O)c(O)c2o1 [daphnetin]
% Remaining @ 1 hr ([1]; buffer, 1 h, 100 ppm, pH 2.8): 99.13% | % Remaining @ 2 hrs ([1]; buffer, 2 h, 100 ppm, pH 2.8): 99.76% | % Remaining @ 4 hrs ([1]; buffer, 4 h, 100 ppm, pH 2.8): 98.13%

COc1cc(/C=C/C(=O)O)ccc1O [ferulic acid]
% Remaining @ 1 hr ([1]; buffer, 1 h, 100 ppm, pH 2.8): 95.41% | % Remaining @ 2 hrs ([1]; buffer, 2 h, 100 ppm, pH 2.8): 96.49% | % Remaining @ 4 hrs ([1]; buffer, 4 h, 100 ppm, pH 2.8): 93.43% | % Remaining @ 6 hrs ([1]; buffer, 6 h, 100 ppm, pH 2.8): 93.85%

COc1cc(C=CC(=O)O)cc(OC)c1O (stereo in doubt) [sinapinic acid]
% Remaining @ 1 hr [1, 2]: 100.00% | % Remaining @ 2 hrs [1, 2]: 99.98% | % Remaining @ 4 hrs [1, 2]: 100.12% | % Remaining @ 6 hrs [1, 2]: 98.52%
